Laboratory results as given in article PMC9170688, “Gametocyte-specific and all-blood-stage transmission-blocking chemotypes discovered from high throughput screening on Plasmodium falciparum gametocytes” (Communications Biology, 2022).
Like-named read-outs stand apart in the source and are kept apart here.

Tests used:
[1] = test system: P. falciparum NF54 pfs16-GFP-PyLUC gametocytes; assay: P. falciparum gametocyte luminescence assay (PfLuc), line NF54 pfs16-GFP-PyLUC; format: cell-based, Plasmodium falciparum; conditions: Plasmodium falciparum, NF54, read-out: Pf Gametocytes NF54 pfs16 (IC50 nM)
Protocol: (§1) To exclude false positive compounds that may interfere with the click beetle CBG99 luciferase signal and to confirm the activity on gametocytes produced by other P. falciparum lines, we tested the above 638 compounds at a single concentration of 10 µM on gametocytes from two NF54 strain derived lines: pfs16-GFP-PyLUC (Photinus pyralis luciferase under the same pfs16 promoter)[14],[16],[27] and hsp86-PpyRE13 that was generated for this work to express the mutated Photinus pyralis PpyRE13 luciferase in gametocytes under the promoter of the pfhsp86 gene.
(§2) With the selected 84 compounds, the subsequent step aimed at determining the gametocyte inhibition potency and the parasite stage selectivity between the gametocytes and the asexual stages in the NF54 hsp86-PpyRE13. […] Similar data were obtained considering the gametocyte IC50 values measured in the NF54 pfs16-GFP-PyLUC strain (see Supplementary Data 2).
(§3) Parasite gametocyte luminescence assays were performed in 384-well plates (Thermo, 4332, USA) by infected red blood cells seeded at 40 µL/well at a haematocrit of 0.625% for the strain 3D7elo1-pfs16-CBG99, 1.875% for both strains NF54 hsp86-PpyRE13 and NF54 pfs16-GFP-PyLUC. Assay were performed in the medium: 10.44 g/L RPMI 1640 Medium (Gibco, 51800043), 5.95 g/L HEPES (Sigma, H4034), 50 mg/L Hypoxantine (Sigma, 56700), 10% heat inactivated human serum, 10 ml of Neomycin solution (Sigma, N1142) and 2.1 g/L NaHCO3 (Sigma, 144-55-8). Compounds or DMSO as control were pre dispensed on plates, from 10 mM DMSO stock solutions, via an acoustic droplet ejection device (ATS-100, EDC Biosystems) to achieve the final desired concentration. Assay plates were incubated for 48 h at 37 °C in 4% CO2, 3% O2, and 93% N2 modified atmosphere. After incubation, 20 µL/well of a solution of luciferin (Regis, 1-360242-200) potassium/sodium salt (300 µg/ml) are added to the assay plates and read at suitable luminescence detection after 1 min incubation at room temperature. The whole HTS was performed in 7 rounds of 30–80 plates each in two months’ time.

[2] = test system: P. falciparum NF54 hsp86-PpyRE13 gametocytes; assay: P. falciparum gametocyte luminescence assay (PfLuc), line NF54 hsp86-PpyRE13; format: cell-based, Plasmodium falciparum; conditions: for IC50: Plasmodium falciparum, NF54, read-out: Pf Gametocytes NF54 HSP86 (IC50 nM); for gametocyte specificity / selectivity (gametocytes vs asexual stages): NF54 hsp86-PpyRE13, ratio of asexual stage (pLDH) to gametocyte (PfLuc) IC50
Protocol: as §1, §2, §3

[3] = test system: P. falciparum NF54 male gametocytes (stage V); assay: Male gamete exflagellation assay; format: cell-based, Plasmodium falciparum; conditions: for Inhibition of male exflagellation at 1 µM: 48 h; for activity at 1 µM: Plasmodium falciparum
Protocol: The above selected 30 compounds were subjected to a phenotypic male gamete exflagellation assay. This assay measures the viability of male gametocytes by quantitating the final step of maturation into motile microgametes in vitro[24]. This process naturally occurs in the mosquito gut within minutes from the blood meal. The acquisition of time lapse videos of gamete motility in bright field microscopy and the subsequent analysis to count exflagellation centres were performed in an automated HTS format in 384-well plates. The compounds were tested in two independent biological replicates at the concentration of 1 µM. […] The results of this study led to the identification of 16 compounds with anti-exflagellation activity (Fig. 4). […] The standard membrane feeding assay (SMFA) is used to measure the parasite transmission through mosquito. In this assay, mature stage V gametocytes of the P. falciparum strain NF54-hsp70-luc were treated with 1 and 10 µM of the nine selected compounds for 24 h, added with human red blood cells and serum to achieve a haematocrit of 50% and then fed to mosquitoes. Luminescence was analyzed in […] 8 days post-feeding.
Asexual parasites of the NF54 line, kindly obtained from Elena Levashina’s laboratory (Max Plank Institute for Infection Biology, Berlin, Germany), were seeded at 1% total parasitemia and grown for 16 days changing medium every day until development of stage V gametocytes (about 1–2% of stage V gametocytemia). 100 µl of gametocyte culture was seeded in each well of a 96 well-plate and 100 µl of 2× concentration of compounds or DMSO as control were added to each well to achieve the desired final concentration. Assay plates were incubated for 48 h at 37 °C in 4% CO2, 3% O2, and 93% N2 modified atmosphere. After the incubation period, 100 µl of medium were removed from each well and the other 100 µl were transferred to a black imaging 96 well plate (ibidi) containing 100 µl of complete medium supplemented with 40 µM of xanthurenic acid. After 15 min, exflagellation events were captured by three ten-second videos each well with an Olympus IX83 inverted microscope with a UPLSAPO 10× N.A. 0.75 objective (Olympus, Japan), equipped with a Hamamatsu ORCA-Flash 4.0 V3 camera. Each video was analyzed using the Icy bio-image analysis software (http://icy.bioimageanalysis.org/) to count the number of exflagellation events.

HeLa cells = assay: HeLa cell proliferation assay (CellTiter Glo); format: cell-based, human; conditions: Homo sapiens
Protocol: In addition, we tested the 84 compounds in a dose-response fashion on HeLa cells to quantitatively monitor their cytotoxicity potential.
HeLa cells (CCL-2, ATCC, USA) were cultured in DMEM without phenol red (Thermo, 11880, USA) + 10% FBS + 1X PenStrep + 1X Gln. They were plated in a 384-well plate (Thermo, 4334-11, USA) to a density of 2000 cells per well and let recover for 4 h at 37 °C, 5% CO2 in a humidified atmosphere. After the recovery, compounds were transferred to assay plates as per compound preparation method. Assay plates were then incubated at 37 °C, 5% CO2 in a humidified atmosphere for 72 h. Cell viability was measured by the CellTiTer Glo (Promega, G8080, USA) as per manufacturer instruction.

[4] = test system: P. falciparum NF54 hsp86-PpyRE13 asexual stages; assay: P. falciparum asexual stage assay (pLDH); format: cell-based, Plasmodium falciparum; conditions: Plasmodium falciparum, NF54, read-out: NF54 Hsp86 PpYRE13 (IC50 nM)
Protocol: as §2
Parasite proliferation assays were performed in 384-well plates (Thermo, 4332, USA) with a starting parasitemia of 0.25% at a haematocrit of 2% by quantification of parasite lactate dehydrogenase (pLDH). Compounds or DMSO as control were pre dispensed on plates, from 10 mM DMSO stock solutions, via an acoustic droplet ejection device (ATS-100, EDC Biosystems) to achieve de final desired concentration. Assay plates were incubated for 72 h at 37 °C in 4% CO2, 3% O2, and 93% N2 modified atmosphere. After the incubation period, plates are frozen at −80 °C for two h and then thawed at room temperature for 2 h. Then, 50 µL of the developer solution (70 mM Tris-HCl pH 8.0, 0.5% Tween-20, 100 mM Lithium L-Lactate, 125 µM nitro blue tetrazolium, 2 U/ml diaphorase and 100 µM 3-Acetylpyridine Adenine Dinucleotide) are added to each well and let to react for 10 min. Absorbance was then read at 650 nm by a suitable spectrophotometer.

[5] = NF54, read-out: Exflagellation @ 1 uM (% of DMSO) 1
[6] = NF54, read-out: Exflagellation @ 1 uM (% of DMSO) 2

Row | Structure (SMILES) | IC50 [1] [nM] | IC50 [2] [nM] | Inhibition of male exflagellation at 1 µM ([3]; 1 µM, Replicate 1) | Inhibition of male exflagellation at 1 µM ([3]; 1 µM, Replicate 2) | activity at 1 µM [3, 5] [%] | activity at 1 µM [3, 6] [%] | IC50 (HeLa cells) [nM] | IC50 [4] [nM] | gametocyte specificity / selectivity (gametocytes vs asexual stages) [2] | male gamete exflagellation reduced to ([3]; 1 µM)
1 | OC(c1ccc(Cl)cc1)C1CCN(CCCN2CCC(C(O)c3ccc(Cl)cc3)CC2)CC1 (stereo not shown) [Compound 13] | 582 | 1600 | 15.4 | 64.1 | 15.4 | 64.1 | 4510 | 1740 | – | –
2 | Cc1ccc2nc(-c3ccccc3)c(CSc3cccc[n+]3[O-])n2c1 [Compound 16] | 167 | 219 | 23.1 | 19.2 | 23.1 | 19.2 | 9510 | 1270 | around 6 fold | –
3 | COc1ccccc1Cn1cc2c(-c3ccc(F)cc3)nnc-2c2cc(OC)c(OC)cc21 [Compound 31] | 277 | 496 | 80.597 | 111.628 | 80.6 | 112 | 5000 | 967 | – | –
4 | Clc1ccc(Nc2nc(-c3ccccn3)cs2)nc1 [Compound 39] | 308 | 382 | 30.5085 | 73.2558 | 30.5 | 73.3 | 2950 | 540 | – | –
5 | COc1cc(CNCC2CCNCC2)ccc1OCc1cccc(Cl)c1 [Compound 53] | 876 | 1820 | 19.2 | 35.9 | 19.2 | 35.9 | 5340 | 2360 | – | 20–30%
6 | Cc1ccc(Nc2cc(C)nc(Nc3ccc(NC(=O)c4cc5ccccc5oc4=O)cc3)n2)cc1 [Compound 63] | 225 | 1870 | 62.7119 | 21.3333 | 62.7 | 21.3 | 8690 | 1730 | – | –
7 | COc1ccc(Nc2cc(C)nc(Nc3ccc(NC(=O)c4cc(C)cc(C)c4)cc3)n2)cc1 [Compound 64] | 264 | 215 | 108.475 | 123.2 | 108 | 123 | 8100 | 437 | – | –
8 | COc1ccc(NC(=O)Nc2ccc(Nc3nc(C)cc(Nc4ccc(C)cc4)n3)cc2)cc1 [Compound 65] | 480 | 431 | 5.085 | 52.8 | 5.08 | 52.8 | 4500 | 904 | – | –
9 | O=C(c1ccc([N+](=O)[O-])o1)N1CCC(Cn2cnc3ccccc32)CC1 [Compound 69] | 555 | 1500 | – | – | 17.3 | 57.7 | 11300 | 6150 | around six | –
